Assay results taken from ChEMBL document CHEMBL4130462, “Natural isoflavone biochanin A as a template for the design of new and potent 3-phenylquinolone efflux inhibitors against Mycobacterium avium” (Eur J Med Chem, 2017).
Converted amounts (≈) assume the structure as drawn.

How the values were obtained:
[1] = tested on: Mycolicibacterium smegmatis; assay: Antimycobacterial activity against Mycobacterium smegmatis str. MC2 155 assessed as reduction in bacterial viability incubated for 3 days by MTT assay; format: organism-based; settings: 72 h
Mycobacterium avium [2] = assay: Antimycobacterial activity against Mycobacterium avium ATCC 25291 assessed as reduction in bacterial viability incubated for 3 days by MTT assay; format: organism-based; settings: mycobacterium avium subsp. avium atcc 25291, 72 h
Mycobacterium avium [3] = assay: Antimycobacterial activity against Mycobacterium avium isolate MAV1 assessed as reduction in bacterial viability incubated for 3 days by MTT assay; format: organism-based; settings: in vitro, 72 h
Mycobacterium avium [4] = assay: Antimycobacterial activity against Mycobacterium avium isolate MAV2 assessed as reduction in bacterial viability incubated for 3 days by MTT assay; format: organism-based; settings: 72 h
Mycobacterium avium [5] = assay: Antimycobacterial activity against Mycobacterium avium isolate MAV3 assessed as reduction in bacterial viability incubated for 3 days by MTT assay; format: organism-based; settings: 72 h
Mycobacterium avium [6] = assay: Antimycobacterial activity against Mycobacterium avium isolate MAV4 assessed as reduction in bacterial viability incubated for 3 days by MTT assay; format: organism-based; settings: 72 h
[7] = Safety index, ratio of MTC for test compound to MTC for chlorpromazine for cytotoxicity in human monocyte-derived macrophages; format: cell-based, Macrophage cell line
Mycobacterium avium [8] = settings: in vivo, 72 h
Description: Antimycobacterial activity against Mycobacterium avium 104 mc'2 3 assessed as reduction in bacterial viability incubated for 3 days by MTT assay

Mycobacterium avium [9] = settings: in vivo, 72 h; remark: listed apart in the source
Description: Antimycobacterial activity against Mycobacterium avium 104 mc'2 4 assessed as reduction in bacterial viability incubated for 3 days by MTT assay

Mycobacterium avium [10] = settings: 104
Description: Inhibition of multidrug resistance efflux pump in Mycobacterium avium 104 assessed as potentiation of clarithromycin -induced antibacterial activity by measuring clarithromycin MIC at 1/2 MIC incubated for 3 days by MTT assay

Mycobacterium avium [11] = settings: 104; remark: listed apart in the source
Description: Inhibition of multidrug resistance efflux pump in Mycobacterium avium 104 assessed as potentiation of clarithromycin -induced antibacterial activity by measuring clarithromycin MIC at 1/4 MIC incubated for 3 days by MTT assay

Mycobacterium avium [12] = settings: 104 mc'2 3
Mycobacterium avium [13] = settings: 104 mc'2 4
Mycobacterium avium [14] = settings: isolate MAV1
Mycobacterium avium [15] = settings: isolate MAV1; remark: listed apart in the source
Mycobacterium avium [16] = settings: isolate MAV2
Description: Inhibition of multidrug resistance efflux pump in Mycobacterium avium isolate MAV2 assessed as potentiation of clarithromycin -induced antibacterial activity by measuring clarithromycin MIC at 1/2 MIC incubated for 3 days by MTT assay (Rvb = >1024 ug/ml)

Mycobacterium avium [17] = settings: isolate MAV3
Mycobacterium avium [18] = settings: isolate MAV4
Description: Inhibition of multidrug resistance efflux pump in Mycobacterium avium isolate MAV4 assessed as potentiation of clarithromycin -induced antibacterial activity by measuring clarithromycin MIC at 1/4 MIC incubated for 3 days by MTT assay

[19] = tested on: Mycobacterium avium subsp. avium ATCC 25291
Description: Inhibition of multidrug resistance efflux pump in Mycobacterium avium ATCC 25291 assessed as potentiation of clarithromycin -induced antibacterial activity by measuring clarithromycin MIC at 1/2 MIC incubated for 3 days by MTT assay

Mycobacterium avium [20] = settings: 104; remark: listed apart in the source
Mycobacterium avium [21] = settings: 104 mc'2 3; remark: listed apart in the source
Mycobacterium avium [22] = settings: 104 mc'2 3; remark: listed apart in the source
Mycobacterium avium [23] = settings: 104 mc'2 4; remark: listed apart in the source
Mycobacterium avium [24] = settings: 104 mc'2 4; remark: listed apart in the source
Mycobacterium avium [25] = settings: isolate MAV1; remark: listed apart in the source
Mycobacterium avium [26] = settings: isolate MAV3; remark: listed apart in the source
Mycobacterium avium [27] = settings: isolate MAV4; remark: listed apart in the source
[28] = tested on: Mycobacterium avium subsp. avium ATCC 25291; remark: listed apart in the source
[29] = tested on: Mycobacterium avium subsp. avium ATCC 25291; remark: listed apart in the source
Mycobacterium avium [30] = settings: 104; remark: listed apart in the source
Mycobacterium avium [31] = settings: 104; remark: listed apart in the source
Mycobacterium avium [32] = settings: 104 mc'2 3; remark: listed apart in the source
Mycobacterium avium [33] = settings: 104 mc'2 3; remark: listed apart in the source
Mycobacterium avium [34] = settings: 104 mc'2 4; remark: listed apart in the source
Mycobacterium avium [35] = settings: 104 mc'2 4; remark: listed apart in the source
Mycobacterium avium [36] = settings: isolate MAV2; remark: listed apart in the source
Mycobacterium avium [37] = settings: isolate MAV4; remark: listed apart in the source
[38] = tested on: Mycobacterium avium subsp. avium ATCC 25291; remark: listed apart in the source
[39] = tested on: Mycobacterium avium subsp. avium ATCC 25291; remark: listed apart in the source
Mycobacterium avium [40] = settings: 104; remark: listed apart in the source
Mycobacterium avium [41] = settings: 104 mc'2 4; remark: listed apart in the source
Mycobacterium avium [42] = settings: isolate MAV2; remark: listed apart in the source
Mycobacterium avium [43] = settings: isolate MAV2; remark: listed apart in the source
Mycobacterium avium [44] = settings: isolate MAV3; remark: listed apart in the source
Mycobacterium avium [45] = settings: isolate MAV3; remark: listed apart in the source
Mycobacterium avium [46] = settings: isolate MAV4; remark: listed apart in the source
Mycobacterium avium [47] = settings: isolate MAV4; remark: listed apart in the source
[48] = tested on: Mycobacterium avium subsp. avium ATCC 25291; remark: listed apart in the source
Mycobacterium avium [49] = settings: 104; remark: listed apart in the source
Mycobacterium avium [50] = settings: 104 mc'2 3; remark: listed apart in the source
Mycobacterium avium [51] = settings: 104 mc'2 4; remark: listed apart in the source
Mycobacterium avium [52] = settings: isolate MAV1; remark: listed apart in the source
Description: Inhibition of multidrug resistance efflux pump in Mycobacterium avium isolate MAV1 assessed as potentiation of ofloxacin-induced antibacterial activity by measuring ofloxacin MIC at 1/2 MIC incubated for 3 days by MTT assay (Rvb = 4 ug/ml)

Mycobacterium avium [53] = settings: isolate MAV1; remark: listed apart in the source
Description: Inhibition of multidrug resistance efflux pump in Mycobacterium avium isolate MAV1 assessed as potentiation of ofloxacin-induced antibacterial activity by measuring ofloxacin MIC at 1/4 MIC incubated for 3 days by MTT assay (Rvb = 4 ug/ml)

Mycobacterium avium [54] = settings: isolate MAV2; remark: listed apart in the source
Description: Inhibition of multidrug resistance efflux pump in Mycobacterium avium isolate MAV2 assessed as potentiation of ofloxacin-induced antibacterial activity by measuring ofloxacin MIC at 1/4 MIC incubated for 3 days by MTT assay

Mycobacterium avium [55] = settings: isolate MAV3; remark: listed apart in the source
Mycobacterium avium [56] = settings: isolate MAV3; remark: listed apart in the source
[57] = tested on: Mycobacterium avium subsp. avium ATCC 25291; remark: listed apart in the source
Mycobacterium avium [58] = settings: 104 mc'2 3; remark: listed apart in the source
Mycobacterium avium [59] = settings: 104 mc'2 4; remark: listed apart in the source
Mycobacterium avium [60] = settings: isolate MAV1; remark: listed apart in the source
Mycobacterium avium [61] = settings: isolate MAV1; remark: listed apart in the source
Mycobacterium avium [62] = settings: isolate MAV2; remark: listed apart in the source
Mycobacterium avium [63] = settings: isolate MAV3; remark: listed apart in the source
Mycobacterium avium [64] = settings: isolate MAV4; remark: listed apart in the source
Mycobacterium avium [65] = settings: isolate MAV4; remark: listed apart in the source
Description: Inhibition of multidrug resistance efflux pump in Mycobacterium avium isolate MAV4 assessed as potentiation of ethidium bromide-induced antibacterial activity by measuring ethidium bromide MIC at 1/4 MIC incubated for 3 days by MTT assay

[66] = tested on: Mycobacterium avium subsp. avium ATCC 25291; remark: listed apart in the source
Description: Inhibition of multidrug resistance efflux pump in Mycobacterium avium ATCC 25291 assessed as potentiation of ethidium bromide-induced antibacterial activity by measuring ethidium bromide MIC at 1/2 MIC incubated for 3 days by MTT assay (Rvb = 50 ug/ml)

SMILES: CCCOc1ccc(-c2cn(CCN3CCCCC3)c3ccccc3c2=O)cc1
- MIC [1]: 256 µg/mL (≈ 656 µM)
- MIC (Mycobacterium avium [2]): 256 µg/mL (≈ 656 µM)
- MIC (Mycobacterium avium [3]): 128 µg/mL (≈ 328 µM)
- MIC (Mycobacterium avium [4]): 256 µg/mL (≈ 656 µM)
- MIC (Mycobacterium avium [5]): 128 µg/mL (≈ 328 µM)
- MIC (Mycobacterium avium [6]): 256 µg/mL (≈ 656 µM)
- selectivity ratio [7]: 2 to 4
- MIC (Mycobacterium avium [8]): 256 µg/mL (≈ 656 µM)
- MIC (Mycobacterium avium [9]): 256 µg/mL (≈ 656 µM)
- MIC (Mycobacterium avium [10]): < 0.125 µg/mL
- MIC (Mycobacterium avium [11]): < 0.125 µg/mL
- MIC (Mycobacterium avium [12]): < 4 µg/mL
- MIC (Mycobacterium avium [13]): 128 µg/mL (≈ 328 µM)
- MIC (Mycobacterium avium [14]): < 0.125 µg/mL
- MIC (Mycobacterium avium [15]): 0.25 µg/mL (≈ 0.64 µM)
- MIC (Mycobacterium avium [16]): 256 µg/mL (≈ 656 µM)
- MIC (Mycobacterium avium [17]): 2 µg/mL (≈ 5.12 µM)
- MIC (Mycobacterium avium [18]): 1 µg/mL (≈ 2.56 µM)
- MIC [19]: < 0.0625 µg/mL
- MIC (Mycobacterium avium [20]): < 0.125 µg/mL
- MIC (Mycobacterium avium [21]): < 4 µg/mL
- MIC (Mycobacterium avium [22]): 128 µg/mL (≈ 328 µM)
- MIC (Mycobacterium avium [23]): < 4 µg/mL
- MIC (Mycobacterium avium [24]): 128 µg/mL (≈ 328 µM)
- MIC (Mycobacterium avium [25]): < 4 µg/mL
- MIC (Mycobacterium avium [26]): < 4 µg/mL
- MIC (Mycobacterium avium [27]): < 4 µg/mL
- MIC [28]: < 1 µg/mL
- MIC [29]: 32 µg/mL (≈ 81.9 µM)
- MIC (Mycobacterium avium [30]): < 0.125 µg/mL
- MIC (Mycobacterium avium [31]): < 0.125 µg/mL
- MIC (Mycobacterium avium [32]): < 4 µg/mL
- MIC (Mycobacterium avium [33]): 512 µg/mL (≈ 1310 µM)
- MIC (Mycobacterium avium [34]): < 4 µg/mL
- MIC (Mycobacterium avium [35]): 512 µg/mL (≈ 1310 µM)
- MIC (Mycobacterium avium [36]): 512 µg/mL (≈ 1310 µM)
- MIC (Mycobacterium avium [37]): 8 µg/mL (≈ 20.5 µM)
- MIC [38]: < 0.5 µg/mL
- MIC [39]: 8 µg/mL (≈ 20.5 µM)
- MIC (Mycobacterium avium [40]): < 0.125 µg/mL
- MIC (Mycobacterium avium [41]): 2 µg/mL (≈ 5.12 µM)
- MIC (Mycobacterium avium [42]): 1 µg/mL (≈ 2.56 µM)
- MIC (Mycobacterium avium [43]): 1 µg/mL (≈ 2.56 µM)
- MIC (Mycobacterium avium [44]): 1 µg/mL (≈ 2.56 µM)
- MIC (Mycobacterium avium [45]): 2 µg/mL (≈ 5.12 µM)
- MIC (Mycobacterium avium [46]): < 0.25 µg/mL
- MIC (Mycobacterium avium [47]): 2 µg/mL (≈ 5.12 µM)
- MIC [48]: < 0.25 µg/mL
- MIC (Mycobacterium avium [49]): < 0.125 µg/mL
- MIC (Mycobacterium avium [50]): < 0.125 µg/mL
- MIC (Mycobacterium avium [51]): 4 µg/mL (≈ 10.2 µM)
- MIC (Mycobacterium avium [52]): < 0.0625 µg/mL
- MIC (Mycobacterium avium [53]): 1 µg/mL (≈ 2.56 µM)
- MIC (Mycobacterium avium [54]): 4 µg/mL (≈ 10.2 µM)
- MIC (Mycobacterium avium [55]): 4 µg/mL (≈ 10.2 µM)
- MIC (Mycobacterium avium [56]): 16 µg/mL (≈ 41 µM)
- MIC [57]: < 0.5 µg/mL
- MIC (Mycobacterium avium [58]): 3.12 µg/mL (≈ 8 µM)
- MIC (Mycobacterium avium [59]): 3.12 µg/mL (≈ 8 µM)
- MIC (Mycobacterium avium [60]): < 0.195 µg/mL
- MIC (Mycobacterium avium [61]): 1.56 µg/mL (≈ 3.99 µM)
- MIC (Mycobacterium avium [62]): 3.12 µg/mL (≈ 8 µM)
- MIC (Mycobacterium avium [63]): 12.5 µg/mL (≈ 32 µM)
- MIC (Mycobacterium avium [64]): < 0.39 µg/mL
- MIC (Mycobacterium avium [65]): 3.12 µg/mL (≈ 8 µM)
- MIC [66]: < 0.39 µg/mL
